Data set [1] concerns the target T1, Histone-lysine N-methyltransferase SETD7 (Homo sapiens, UniProt Q8WTS6).
T1 sequence (Q8WTS6 whole entry): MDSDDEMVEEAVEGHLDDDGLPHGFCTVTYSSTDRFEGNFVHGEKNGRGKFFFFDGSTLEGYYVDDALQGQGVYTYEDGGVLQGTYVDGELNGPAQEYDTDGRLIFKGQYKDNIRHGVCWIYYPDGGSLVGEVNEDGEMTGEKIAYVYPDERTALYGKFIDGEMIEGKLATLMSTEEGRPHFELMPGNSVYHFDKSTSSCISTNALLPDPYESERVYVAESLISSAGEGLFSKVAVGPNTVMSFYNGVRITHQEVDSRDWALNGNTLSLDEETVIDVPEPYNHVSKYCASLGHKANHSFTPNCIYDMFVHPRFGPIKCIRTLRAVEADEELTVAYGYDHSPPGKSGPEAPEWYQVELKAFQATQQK
As to the kind of experiment: Inhibition of SET7 (unknown origin) using biotinylated histone polypeptide as substrate in presence of SAM by AlphaLISA assay. On the technique in general: In Alpha technology, singlet oxygen from a donor bead excites a nearby acceptor bead.

Data set [2] has as its target T1, Histone-lysine N-methyltransferase SETD7. As to the kind of experiment: Binding affinity to SET7 (unknown origin) by SPR analysis. Background: In SPR one partner is held on a chip, and binding of the other changes the refractive index at the surface.
The target of data set [3] is T2, Histone-lysine N-methyltransferase SUV39H1 (Homo sapiens) (UniProt O43463).
T2 sequence (whole entry): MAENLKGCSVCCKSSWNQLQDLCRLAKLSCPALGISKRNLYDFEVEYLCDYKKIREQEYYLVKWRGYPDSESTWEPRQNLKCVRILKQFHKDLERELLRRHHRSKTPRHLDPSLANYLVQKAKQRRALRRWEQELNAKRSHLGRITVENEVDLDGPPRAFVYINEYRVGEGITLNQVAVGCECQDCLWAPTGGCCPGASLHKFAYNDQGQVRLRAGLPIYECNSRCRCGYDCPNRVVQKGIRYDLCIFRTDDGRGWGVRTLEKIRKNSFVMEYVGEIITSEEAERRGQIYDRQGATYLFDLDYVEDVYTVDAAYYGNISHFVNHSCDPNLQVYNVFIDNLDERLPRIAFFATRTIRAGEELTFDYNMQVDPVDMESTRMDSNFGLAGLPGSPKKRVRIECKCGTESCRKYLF
Put plainly: Inhibition of SUV39H1 (unknown origin) at 100 uM.

For data set [4], the target named is T3, Histone-lysine N-methyltransferase EHMT2 (Homo sapiens) (UniProt Q96KQ7).
T3 sequence (whole entry): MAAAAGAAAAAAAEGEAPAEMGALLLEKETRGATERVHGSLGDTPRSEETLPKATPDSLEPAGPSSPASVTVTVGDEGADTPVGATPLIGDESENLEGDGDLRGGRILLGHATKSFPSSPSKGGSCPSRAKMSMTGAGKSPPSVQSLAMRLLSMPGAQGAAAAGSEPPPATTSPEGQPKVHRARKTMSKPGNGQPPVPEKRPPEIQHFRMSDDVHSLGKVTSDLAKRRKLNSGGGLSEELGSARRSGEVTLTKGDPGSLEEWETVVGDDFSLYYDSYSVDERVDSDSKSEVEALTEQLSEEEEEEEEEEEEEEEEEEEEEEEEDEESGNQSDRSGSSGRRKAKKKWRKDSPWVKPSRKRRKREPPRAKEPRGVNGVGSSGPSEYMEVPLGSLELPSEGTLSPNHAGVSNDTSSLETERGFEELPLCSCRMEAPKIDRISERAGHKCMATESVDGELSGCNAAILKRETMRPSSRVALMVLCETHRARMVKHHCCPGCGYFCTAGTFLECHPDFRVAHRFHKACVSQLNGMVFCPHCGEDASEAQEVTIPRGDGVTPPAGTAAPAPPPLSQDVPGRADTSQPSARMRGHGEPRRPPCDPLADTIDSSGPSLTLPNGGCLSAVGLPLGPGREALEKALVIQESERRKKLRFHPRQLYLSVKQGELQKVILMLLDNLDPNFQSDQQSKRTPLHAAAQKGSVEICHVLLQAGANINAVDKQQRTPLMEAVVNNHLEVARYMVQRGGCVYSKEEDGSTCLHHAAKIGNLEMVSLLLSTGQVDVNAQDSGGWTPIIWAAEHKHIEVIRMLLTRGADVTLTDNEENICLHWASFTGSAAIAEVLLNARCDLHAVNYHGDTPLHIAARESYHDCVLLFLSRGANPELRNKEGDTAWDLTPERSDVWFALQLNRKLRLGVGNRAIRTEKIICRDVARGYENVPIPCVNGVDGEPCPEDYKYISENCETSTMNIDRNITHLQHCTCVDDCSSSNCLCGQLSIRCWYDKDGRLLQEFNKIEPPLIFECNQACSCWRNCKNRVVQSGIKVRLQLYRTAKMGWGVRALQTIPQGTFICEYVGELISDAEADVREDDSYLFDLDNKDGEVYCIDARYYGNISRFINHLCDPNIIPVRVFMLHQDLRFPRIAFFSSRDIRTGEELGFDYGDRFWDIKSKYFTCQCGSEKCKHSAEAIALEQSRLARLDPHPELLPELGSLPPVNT
As to the kind of experiment: Inhibition of G9a (unknown origin) at 100 uM.

For data set [5], the target named is Histone-lysine N-methyltransferase, H3 lysine-36 specific (Homo sapiens) (UniProt Q96L73). Put plainly: Inhibition of NSD1 (unknown origin) at 100 uM.
Sequence of Histone-lysine N-methyltransferase, H3 lysine-36 specific (Homo sapiens) (Q96L73 whole entry): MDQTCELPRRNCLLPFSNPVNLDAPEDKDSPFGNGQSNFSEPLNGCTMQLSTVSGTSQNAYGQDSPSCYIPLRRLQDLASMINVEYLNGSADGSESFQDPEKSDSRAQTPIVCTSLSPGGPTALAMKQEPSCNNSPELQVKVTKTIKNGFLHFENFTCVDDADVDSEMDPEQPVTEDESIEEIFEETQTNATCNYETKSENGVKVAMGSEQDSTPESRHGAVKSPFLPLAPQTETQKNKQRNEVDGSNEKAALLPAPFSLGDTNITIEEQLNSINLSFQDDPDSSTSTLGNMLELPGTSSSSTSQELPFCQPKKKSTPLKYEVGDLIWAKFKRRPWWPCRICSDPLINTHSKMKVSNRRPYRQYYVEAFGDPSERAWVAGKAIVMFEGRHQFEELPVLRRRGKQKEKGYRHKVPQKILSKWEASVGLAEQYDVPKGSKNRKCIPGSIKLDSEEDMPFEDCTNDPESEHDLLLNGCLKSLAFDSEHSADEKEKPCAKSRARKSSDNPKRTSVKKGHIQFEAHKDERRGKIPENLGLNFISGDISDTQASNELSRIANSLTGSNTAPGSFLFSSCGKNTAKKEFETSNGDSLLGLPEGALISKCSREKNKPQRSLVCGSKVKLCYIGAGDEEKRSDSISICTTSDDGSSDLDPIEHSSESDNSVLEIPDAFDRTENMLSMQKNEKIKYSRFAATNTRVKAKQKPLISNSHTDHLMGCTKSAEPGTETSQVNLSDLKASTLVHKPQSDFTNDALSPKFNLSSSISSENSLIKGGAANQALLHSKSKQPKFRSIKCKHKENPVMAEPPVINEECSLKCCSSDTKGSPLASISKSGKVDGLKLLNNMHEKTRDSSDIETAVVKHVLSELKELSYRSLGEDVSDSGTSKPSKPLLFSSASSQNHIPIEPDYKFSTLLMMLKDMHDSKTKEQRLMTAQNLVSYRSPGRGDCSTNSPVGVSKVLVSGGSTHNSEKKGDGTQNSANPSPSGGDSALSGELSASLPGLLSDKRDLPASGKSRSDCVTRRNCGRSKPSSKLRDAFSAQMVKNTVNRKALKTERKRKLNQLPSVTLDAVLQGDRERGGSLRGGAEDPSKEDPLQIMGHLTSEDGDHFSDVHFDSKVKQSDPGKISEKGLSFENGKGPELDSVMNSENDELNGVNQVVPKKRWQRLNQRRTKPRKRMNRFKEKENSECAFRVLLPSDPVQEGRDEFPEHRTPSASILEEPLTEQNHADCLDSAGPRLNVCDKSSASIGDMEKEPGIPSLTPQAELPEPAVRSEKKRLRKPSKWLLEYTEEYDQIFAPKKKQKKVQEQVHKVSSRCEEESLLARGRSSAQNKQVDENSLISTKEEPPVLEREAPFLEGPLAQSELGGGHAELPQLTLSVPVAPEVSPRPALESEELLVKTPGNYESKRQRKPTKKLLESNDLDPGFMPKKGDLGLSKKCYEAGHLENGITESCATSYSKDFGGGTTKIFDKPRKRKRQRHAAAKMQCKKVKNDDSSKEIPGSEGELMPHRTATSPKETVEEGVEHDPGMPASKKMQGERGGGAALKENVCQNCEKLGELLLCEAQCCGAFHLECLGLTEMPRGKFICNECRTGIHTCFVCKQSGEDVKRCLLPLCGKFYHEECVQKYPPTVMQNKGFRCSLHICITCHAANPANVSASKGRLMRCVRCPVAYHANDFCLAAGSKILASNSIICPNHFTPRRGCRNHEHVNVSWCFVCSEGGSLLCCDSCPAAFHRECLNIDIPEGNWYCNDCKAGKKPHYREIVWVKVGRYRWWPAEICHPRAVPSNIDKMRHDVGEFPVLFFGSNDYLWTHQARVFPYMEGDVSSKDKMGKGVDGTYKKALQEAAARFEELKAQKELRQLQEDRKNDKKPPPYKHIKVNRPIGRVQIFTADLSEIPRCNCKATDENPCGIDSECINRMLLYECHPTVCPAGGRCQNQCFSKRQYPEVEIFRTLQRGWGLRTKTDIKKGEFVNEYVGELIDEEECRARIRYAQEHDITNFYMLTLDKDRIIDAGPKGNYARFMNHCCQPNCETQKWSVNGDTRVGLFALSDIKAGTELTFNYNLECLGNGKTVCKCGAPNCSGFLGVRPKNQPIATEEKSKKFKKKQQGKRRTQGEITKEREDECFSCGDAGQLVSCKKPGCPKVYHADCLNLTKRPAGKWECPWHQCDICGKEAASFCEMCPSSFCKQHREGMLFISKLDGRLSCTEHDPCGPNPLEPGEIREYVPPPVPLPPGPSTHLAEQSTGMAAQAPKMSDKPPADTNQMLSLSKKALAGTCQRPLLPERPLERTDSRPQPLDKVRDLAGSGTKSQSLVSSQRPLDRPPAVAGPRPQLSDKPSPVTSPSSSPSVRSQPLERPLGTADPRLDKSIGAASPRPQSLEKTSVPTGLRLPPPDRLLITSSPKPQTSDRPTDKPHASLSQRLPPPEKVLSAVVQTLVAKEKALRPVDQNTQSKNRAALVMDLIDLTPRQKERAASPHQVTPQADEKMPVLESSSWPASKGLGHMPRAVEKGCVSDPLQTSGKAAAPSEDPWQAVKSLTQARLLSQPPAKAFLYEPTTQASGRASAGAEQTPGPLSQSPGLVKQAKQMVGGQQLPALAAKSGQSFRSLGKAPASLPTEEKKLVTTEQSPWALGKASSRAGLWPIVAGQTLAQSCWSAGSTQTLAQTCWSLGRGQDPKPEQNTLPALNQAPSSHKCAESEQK
For data set [6], the target named is Histone-lysine N-methyltransferase, H3 lysine-79 specific (Homo sapiens) (UniProt Q8TEK3). Put plainly: Inhibition of DOT1L (unknown origin) at 100 uM.
Sequence of Histone-lysine N-methyltransferase, H3 lysine-79 specific (Homo sapiens) (Q8TEK3 whole entry, looked up): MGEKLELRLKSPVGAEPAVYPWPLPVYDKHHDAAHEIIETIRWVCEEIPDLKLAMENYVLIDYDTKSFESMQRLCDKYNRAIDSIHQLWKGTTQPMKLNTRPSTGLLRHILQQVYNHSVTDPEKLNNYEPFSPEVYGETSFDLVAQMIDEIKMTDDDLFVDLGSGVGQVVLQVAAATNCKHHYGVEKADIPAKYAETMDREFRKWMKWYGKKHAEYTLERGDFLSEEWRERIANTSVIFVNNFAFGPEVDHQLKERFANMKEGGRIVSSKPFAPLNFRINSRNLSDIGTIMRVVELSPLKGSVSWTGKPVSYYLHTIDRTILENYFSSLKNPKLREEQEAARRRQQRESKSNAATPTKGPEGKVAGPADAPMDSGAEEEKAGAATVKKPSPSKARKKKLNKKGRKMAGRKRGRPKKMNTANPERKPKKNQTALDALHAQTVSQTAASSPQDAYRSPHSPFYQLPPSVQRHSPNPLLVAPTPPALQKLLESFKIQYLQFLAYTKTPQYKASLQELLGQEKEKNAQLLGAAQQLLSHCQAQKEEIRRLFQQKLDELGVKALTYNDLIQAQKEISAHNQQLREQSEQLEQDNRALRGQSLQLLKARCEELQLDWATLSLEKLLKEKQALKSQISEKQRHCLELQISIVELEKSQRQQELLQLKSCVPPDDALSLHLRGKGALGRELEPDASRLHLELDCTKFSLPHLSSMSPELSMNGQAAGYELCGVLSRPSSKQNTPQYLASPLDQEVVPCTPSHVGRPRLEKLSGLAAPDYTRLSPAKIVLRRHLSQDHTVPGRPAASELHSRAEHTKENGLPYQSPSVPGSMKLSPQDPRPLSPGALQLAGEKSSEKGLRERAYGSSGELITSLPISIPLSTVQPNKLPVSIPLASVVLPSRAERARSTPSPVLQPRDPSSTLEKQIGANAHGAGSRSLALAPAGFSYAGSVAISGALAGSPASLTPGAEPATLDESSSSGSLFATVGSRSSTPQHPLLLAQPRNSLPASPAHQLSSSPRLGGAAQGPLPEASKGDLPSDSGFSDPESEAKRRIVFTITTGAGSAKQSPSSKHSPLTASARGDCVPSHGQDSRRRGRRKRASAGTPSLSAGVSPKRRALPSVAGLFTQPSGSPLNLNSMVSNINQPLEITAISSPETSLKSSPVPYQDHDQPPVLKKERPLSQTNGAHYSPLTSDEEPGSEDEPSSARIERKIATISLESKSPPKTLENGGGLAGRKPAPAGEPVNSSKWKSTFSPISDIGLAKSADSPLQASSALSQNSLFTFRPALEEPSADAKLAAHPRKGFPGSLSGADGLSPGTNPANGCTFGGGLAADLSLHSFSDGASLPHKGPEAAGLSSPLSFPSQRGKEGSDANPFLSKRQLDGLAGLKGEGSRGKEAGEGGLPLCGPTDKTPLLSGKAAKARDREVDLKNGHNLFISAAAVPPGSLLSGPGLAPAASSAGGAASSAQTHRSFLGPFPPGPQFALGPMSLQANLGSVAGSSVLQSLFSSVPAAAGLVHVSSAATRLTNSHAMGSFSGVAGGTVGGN
The target in data set [7] is T4, Histone acetyltransferase KAT8 (Homo sapiens) (UniProt Q9H7Z6).
T4 sequence (whole entry): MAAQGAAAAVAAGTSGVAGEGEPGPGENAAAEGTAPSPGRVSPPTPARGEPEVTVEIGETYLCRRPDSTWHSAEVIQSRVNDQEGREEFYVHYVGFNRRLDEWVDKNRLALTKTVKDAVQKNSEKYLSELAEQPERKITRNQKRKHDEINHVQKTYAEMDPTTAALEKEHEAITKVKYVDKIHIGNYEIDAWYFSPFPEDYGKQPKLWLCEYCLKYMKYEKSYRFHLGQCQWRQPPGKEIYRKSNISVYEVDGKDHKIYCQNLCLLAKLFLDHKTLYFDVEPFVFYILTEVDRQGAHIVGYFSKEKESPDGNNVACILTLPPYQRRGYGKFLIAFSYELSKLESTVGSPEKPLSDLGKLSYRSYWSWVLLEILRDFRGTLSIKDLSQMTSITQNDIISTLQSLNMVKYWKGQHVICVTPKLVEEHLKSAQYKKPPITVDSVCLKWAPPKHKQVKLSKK
As to the kind of experiment: Inhibition of MOF (unknown origin) at 100 uM.

The target in data set [8] is T5, Histone-lysine N-methyltransferase SETD7 (Homo sapiens) (UniProt Q8WTS6).
T5 sequence (whole entry): T1 sequence (Q8WTS6 whole entry)
Put plainly: Inhibition of SET7 (unknown origin) at 100 uM.

The subject of data set [9] is MCF7. Put plainly: Antiproliferative activity against human MCF7 cells expresses endogenous ER by Cell Titer-Glo based luminescence assay.
In data set [10] the test system is MRC5. Put plainly: Cytotoxicity against human MRC5 cells assessed as reduction in cell viability by Cell Titer-Glo based luminescence assay.
For data set [11], the system named is HUVEC. As to the kind of experiment: Cytotoxicity against HUVEC assessed as reduction in cell viability by Cell Titer-Glo based luminescence assay. The following applies: human. (In general: ATP-based viability assays read luminescence as a measure of living cells.)
The target in data set [12] is T5, Histone-lysine N-methyltransferase SETD7 (Homo sapiens). As to the kind of experiment: Inhibition of SET7 in human MCF7 cells assessed as reduction in ERalpha protein expression by Western blot analysis. In kind it is cell-based.

Consider 26 compounds from ChEMBL document CHEMBL4627335, “Lead discovery, chemical optimization, and biological evaluation studies of novel histone methyltransferase SET7 small-molecule inhibitors” (Bioorg Med Chem Lett, 2020).

Activity calls are given as the source filed them. The rule behind the calls is not given here.

In the case of `Cc1ccc(C2=CC(=O)C=CC2=O)cc1`, the IC50 (commonly the concentration that inhibits the measured activity by half) in data set [1] was over 200 µM. The same measure, in the same setting: the result for `O=C1C=CC(=O)C(c2ccc(Br)cc2)=C1` reads over 200 µM; that for `CC(C)(C)OC(=O)N1CCN(C(=O)c2ccc(-c3ccc(C#N)cc3)cc2)CC1`, over 200 µM.

With `N#Cc1cccc(-c2ccc(C(=O)O)cc2)c1`, in data set [1], the IC50 is over 200 µM. The same measure, in the same setting: the same measure for `O=C1C=C(O)C(=O)c2ccccc21` [LAWSONE]: over 200 µM.

On to `COC1=CC(=O)c2ccccc2C1=O` [2-Methoxy-1,4-naphthoquinone], for which the IC50 in data set [1] is over 200 µM. On the same count and under the same terms, the same measure for `CCCCc1ccc(C2=CC(=O)C=CC2=O)cc1`: over 200 µM.

For `COc1ccc(OC)c(-c2ccc(CN3CCCC3)c(N)c2)c1`, the IC50 in [1] is over 200 µM. Still for that read-out and setting: the same measure for `Cc1ccc(C2=CC(=O)C=CC2=O)cc1C`: over 200 µM. `COC(=O)c1ccc(C2=CC(=O)C=CC2=O)o1`: the figures for the IC50 in data set [1] and in data set [9] were 15.9 µM and 25.8 µM, respectively. In addition, the Kd – broadly, the free concentration of one partner at which half of the binding sites on the other are occupied at equilibrium, for simple one-to-one binding – in data set [2] was determined as 18 µM. For the same compound, the inhibition entry in [3], in [4], in data set [5], in data set [6] and in [7] was “inactive” throughout. In addition, in [8], the inhibition entry is “Active”. The Activity result in data set [10] and in data set [11] was “Toxic” in each case. The inhibition entry in data set [12] was “Dose-dependent effect”. Turning to `CC(C)(C)OC(=O)N1CCN(C(=O)c2ccc(-c3cccc(C#N)c3)cc2)CC1`, in [1], the IC50 is over 200 µM. On the same count and under the same terms, the result for `O=C1C=CC(=O)C(c2ccc(CN3CCOCC3)c(NS(=O)(=O)c3ccc(C(F)(F)F)cc3)c2)=C1` reads over 200 µM; that for `COc1ccc(OC)c(-c2ccc(CN3CCN(C(=O)OC(C)(C)C)CC3)c(N)c2)c1`, over 200 µM; that for `COc1ccc(OC)c(-c2ccc(CN3CCN(C(=O)OC(C)(C)C)CC3)cc2)c1`, over 200 µM. Same read-out and setting: the same measure for `COc1ccc(OC)c(-c2ccc(CN3CCCC3)c([N+](=O)[O-])c2)c1`: over 200 µM; for `N#Cc1cccc(-c2ccc(C(=O)N3CCNCC3)cc2)c1`: over 200 µM. With `O=C1C=CC(=O)C(c2ccc(CN3CCOCC3)c(NS(=O)(=O)c3ccc(Cl)cc3)c2)=C1`, the IC50 in data set [1] is over 200 µM. On the same count and under the same terms, the same measure for `CN(C)CCNC(=O)c1ccc(-c2ccc(C#N)cc2)cc1`: over 200 µM; for `O=C1C=CC(=O)C(c2ccc(CN3CCCC3)c(NS(=O)(=O)c3ccc(C(F)(F)F)cc3)c2)=C1`: over 200 µM. Take `CC(C)c1ccc(C2=CC(=O)C=CC2=O)cc1`: the half-maximal inhibitory concentration (IC50) in data set [1] is over 200 µM. On the same count and under the same terms, the result for `COc1ccc(OC)c(-c2ccc(CN3CCOCC3)c(NS(=O)(=O)c3ccccc3)c2)c1` reads over 200 µM. On the same count and under the same terms, the same measure for `O=C1C=CC(=O)C(c2ccc(CN3CCOCC3)c(NS(=O)(=O)c3ccc([N+](=O)[O-])cc3)c2)=C1`: over 200 µM; for `O=C1C=CC(=O)C(c2cccc(C(F)(F)F)c2)=C1`: over 200 µM; for `N#Cc1ccc(-c2ccc(C(=O)O)cc2)cc1`: over 200 µM. Still for that read-out and setting: the result for `COc1ccc(OC)c(-c2ccc(CN3CCCC3)c(NS(=O)(=O)c3ccccc3)c2)c1` reads over 200 µM; that for `CN(C)CCNC(=O)c1ccc(-c2cccc(C#N)c2)cc1`, over 200 µM.
